Read-outs that look alike come from different tables or passages of the source. A value given as a limit tells only on which side of the number the result lay.

Results on twelve molecules are retold here after PMC6104605, “Discovery of new chromen-4-one derivatives as telomerase inhibitors through regulating expression of dyskerin” (Journal of Enzyme Inhibition and Medicinal Chemistry, 2018).

For series [1], the system named is human cervical cancer cell Hela. The series can be described thus: MTT anticancer assay, Hela. Format: cell-based. To be noted: read-out: IC50 Hela. The procedure: (§1) The MTT was purchased from Sigma. Cell Cycle Analysis Kit and Apoptosis Analysis Kit were purchased from Bestbio (China). Mitochondrial membrane potential assay kit with JC-1 was purchased from Beyotime (China). All the materials were used as received without further purification unless noted specifically. The cell culture was maintained on DMEM medium (Hyclone, US) supplemented with 10% fetal bovine serum (Sijiqing, China), 100 U/mL penicillin and 100 µg/mL streptomycin in 25-cm^2 culture flasks at 37 °C humidified atmosphere with 5% CO2. Drugs were dissolved in DMSO and filtered through 0.22-µm pore-size filter units before addition to cell line appropriate media. When tumor cells were grown to log phase, diluting to 5 × 10^4 cells mL^−1 with the complete medium, 100 µL of the obtained cell suspension was added to each well of 96-well culture plates. The subsequent incubation was performed at 37 °C, 5% CO2 atmosphere for 48 h before subjecting to anti-proliferation assessment. After 48-h exposure period, 20 µL of PBS containing 5 mg·mL^−1 of MTT was added to each well. After 4 h, the medium was replaced by 150 µL DMSO to dissolve the purple formazan crystals produced. […] The data represented the mean of three experiments in triplicate and were expressed as means ± SD.
(Formazan colour is commonly taken as a measure of viable cells.)

Series [2] has as its system human liver cancer cell HepG2. Put plainly: MTT anticancer assay, HepG2. The series is classed as cell-based. The settings on record: 48 h exposure, mean ± SD, dash = footnote d 'None'. As for the experimental part: (§2) The MTT was purchased from Sigma. Cell Cycle Analysis Kit and Apoptosis Analysis Kit were purchased from Bestbio (China). Mitochondrial membrane potential assay kit with JC-1 was purchased from Beyotime (China). All the materials were used as received without further purification unless noted specifically. The cell culture was maintained on DMEM medium (Hyclone, US) supplemented with 10% fetal bovine serum (Sijiqing, China), 100 U/mL penicillin and 100 µg/mL streptomycin in 25-cm^2 culture flasks at 37 °C humidified atmosphere with 5% CO2. Drugs were dissolved in DMSO and filtered through 0.22-µm pore-size filter units before addition to cell line appropriate media. When tumor cells were grown to log phase, diluting to 5 × 10^4 cells mL^−1 with the complete medium, 100 µL of the obtained cell suspension was added to each well of 96-well culture plates. The subsequent incubation was performed at 37 °C, 5% CO2 atmosphere for 48 h before subjecting to anti-proliferation assessment. After 48-h exposure period, 20 µL of PBS containing 5 mg·mL^−1 of MTT was added to each well. After 4 h, the medium was replaced by 150 µL DMSO to dissolve the purple formazan crystals produced. The absorbance at 492 nm of each well was measured on an ELISA plate reader. The data represented the mean of three experiments in triplicate and were expressed as means ± SD. The IC50 value was defined as the concentration at which 50% of the cells could survive. The following human tumor cell lines were used in the assay: human gastric cancer cells SGC-7901, human liver cancer cell SMMC-7721 and HepG2, human cervical cancer cell Hela and human glioma cell U87.

For series [3], the system named is human liver cancer cell SMMC-7721. Put plainly: MTT anticancer assay, SMMC-7721. Format: cell-based. The settings on record: 48 h exposure, mean ± SD. As for the experimental part:
as §2

Series [4] concerns human gastric cancer cells SGC-7901. The series can be described thus: MTT anticancer assay, SGC-7901. Format: cell-based. The settings on record: for IC50: Homo sapiens, SGC-7901, MTT, 48 h exposure, mean ± SD. As for the experimental part: as §1
The test system of the next series is human glioma cell U87. Put plainly: MTT anticancer assay, U87. Format: cell-based. The settings on record: 48 h exposure, mean ± SD, dash = footnote d 'None'. The procedure: as §2
The subject of series [5] is human normal gastric mucosa cell (GES-1). Put plainly: Proliferative inhibition of human normal cell (MTT). Format: cell-based. The source says: In order to determine the selective cell toxicity of selected compounds. We subsequently conducted a proliferative inhibition assay with human normal gastric mucosa cell (GES-1).
The target in another series is T1, telomerase (Homo sapiens, UniProt O14746).
T1 construct: endogenous in cells; host or cells: SGC-7901
T1 sequence (O14746 whole entry): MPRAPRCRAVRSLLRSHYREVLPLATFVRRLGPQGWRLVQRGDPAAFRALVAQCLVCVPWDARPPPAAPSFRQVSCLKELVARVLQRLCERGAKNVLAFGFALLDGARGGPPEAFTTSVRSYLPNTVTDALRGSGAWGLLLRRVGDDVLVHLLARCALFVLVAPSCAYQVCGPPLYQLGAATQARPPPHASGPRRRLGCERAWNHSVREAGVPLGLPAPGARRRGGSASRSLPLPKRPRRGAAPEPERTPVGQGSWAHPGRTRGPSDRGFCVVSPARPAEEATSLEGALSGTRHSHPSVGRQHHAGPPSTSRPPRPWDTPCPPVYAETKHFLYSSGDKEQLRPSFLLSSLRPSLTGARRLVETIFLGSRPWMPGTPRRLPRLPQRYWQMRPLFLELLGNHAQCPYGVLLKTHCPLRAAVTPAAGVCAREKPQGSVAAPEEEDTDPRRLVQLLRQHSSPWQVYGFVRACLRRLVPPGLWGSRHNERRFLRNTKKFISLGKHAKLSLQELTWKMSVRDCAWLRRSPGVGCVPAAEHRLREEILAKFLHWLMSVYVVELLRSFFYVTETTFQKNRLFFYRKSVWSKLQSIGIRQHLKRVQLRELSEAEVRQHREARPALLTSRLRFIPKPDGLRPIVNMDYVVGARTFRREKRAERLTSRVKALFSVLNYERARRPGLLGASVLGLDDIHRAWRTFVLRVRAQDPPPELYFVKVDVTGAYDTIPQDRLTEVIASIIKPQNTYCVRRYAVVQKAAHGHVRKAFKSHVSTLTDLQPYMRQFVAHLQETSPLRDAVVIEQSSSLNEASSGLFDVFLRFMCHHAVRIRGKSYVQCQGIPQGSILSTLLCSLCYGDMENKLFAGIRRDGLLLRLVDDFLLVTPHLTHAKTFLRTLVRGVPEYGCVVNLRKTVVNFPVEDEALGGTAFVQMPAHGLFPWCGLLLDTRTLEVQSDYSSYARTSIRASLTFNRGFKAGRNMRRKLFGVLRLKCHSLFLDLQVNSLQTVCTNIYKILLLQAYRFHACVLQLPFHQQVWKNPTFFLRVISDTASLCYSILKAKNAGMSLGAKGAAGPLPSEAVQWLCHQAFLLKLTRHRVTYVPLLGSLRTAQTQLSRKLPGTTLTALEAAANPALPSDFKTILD
T1 sequence (O60832 whole entry partner): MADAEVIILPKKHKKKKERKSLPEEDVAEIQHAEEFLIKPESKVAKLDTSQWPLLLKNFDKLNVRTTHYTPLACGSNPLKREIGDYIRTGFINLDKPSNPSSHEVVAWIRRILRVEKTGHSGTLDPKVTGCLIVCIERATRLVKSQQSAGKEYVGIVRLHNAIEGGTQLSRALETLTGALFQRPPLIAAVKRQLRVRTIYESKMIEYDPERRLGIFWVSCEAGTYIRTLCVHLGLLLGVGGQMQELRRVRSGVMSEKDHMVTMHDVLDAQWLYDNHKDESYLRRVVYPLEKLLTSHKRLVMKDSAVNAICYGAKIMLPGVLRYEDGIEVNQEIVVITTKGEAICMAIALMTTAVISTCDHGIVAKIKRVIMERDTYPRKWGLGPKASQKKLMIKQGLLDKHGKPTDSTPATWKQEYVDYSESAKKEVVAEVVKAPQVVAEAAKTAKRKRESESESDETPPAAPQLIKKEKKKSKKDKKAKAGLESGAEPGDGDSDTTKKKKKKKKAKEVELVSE
T1 sequence (Q9NX24 whole entry partner): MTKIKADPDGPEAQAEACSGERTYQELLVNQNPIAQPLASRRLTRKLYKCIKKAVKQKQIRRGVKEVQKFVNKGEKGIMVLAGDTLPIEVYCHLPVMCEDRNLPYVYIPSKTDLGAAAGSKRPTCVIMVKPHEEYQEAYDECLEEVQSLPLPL
T1 sequence (Q9NPE3 whole entry partner): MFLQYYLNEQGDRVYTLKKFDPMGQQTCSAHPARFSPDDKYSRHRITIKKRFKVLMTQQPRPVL
T1 sequence (Q9NY12 whole entry partner): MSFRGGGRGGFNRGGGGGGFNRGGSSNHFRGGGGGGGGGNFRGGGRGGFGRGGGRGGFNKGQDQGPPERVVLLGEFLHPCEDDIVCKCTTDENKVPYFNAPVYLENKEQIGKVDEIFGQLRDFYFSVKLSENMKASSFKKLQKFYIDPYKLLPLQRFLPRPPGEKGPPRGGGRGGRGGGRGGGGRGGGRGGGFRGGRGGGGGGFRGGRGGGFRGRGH
Put plainly: Telomerase activity assay (TRAP-PCR-ELISA). The series is classed as biochemical. To be noted: SGC-7901 cells extracts, 24-h treatment, mean ± SD. As for the experimental part:
Inhibit of telomerase activity was tested using the TRAP-PCR-ELISA assay. In detail, the SGC-7901 cells were firstly maintained in DMEM medium (GIBCO, New York) supplemented with 10% fetal bovineserum (GIBCO, NewYork), streptomycin (0.1 mg/mL) and penicillin (100 IU/mL) at 37 °C in a humidified atmosphere containing 5% CO2. After trypsinisation, 5 × 10^4 cultured cells in logarithmic growth were seeded into T25 flasks (Corning, New York) and cultured to allow to adherence. The cells were then incubated with Staurosporine (Santa Cruz, Santa Cruz) and the drugs with a series of concentration as 60, 20, 6.67, 2.22, 0.74, 0.25 and 0.082 l g/mL, respectively. After 24-h treatment, the cells were harvested by cell scraper orderly following by washed once with PBS. The cells were lysed in 150 µL RIPA cell lysis buffer (Santa Cruz, Santa Cruz) and incubated on ice for 30 min. The cellular supernatants were obtained via centrifugation at 12,000 g for 20 min at 4 °C and stored at −80 °C. The TRAP-PCR-ELISA assay was performed using a telomerase detection kit (Roche, Basel, Switzerland) according to the manufacturer’s protocol. In brief, 2 µL of cell extracts were mixed with 48 µL TRAP reaction mixtures. PCR was then initiated at 94 °C, 120 s for predenaturation and performed using 35 cycles each consisting of 94 °C for 30 s, 50 °C for 30 s, 72 °C for 90 s. Then 20 µL of PCR products were hybridised to a digoxigenin (DIG)-labeled telomeric repeat specific detection probe. And the PCR products were immobilised via the biotin-labeled primer to a streptavidin-coated microtiter plate subsequently. The immobilised DNA fragment were detected with a peroxidase-conjugated anti-DIG antibody and visualised following addition of the stop regent. The microtitre plate was assessed on TECAN Infinite M200 microplate reader (Mannedorf, Switzerland) at a wavelength of 490 nm, and the final value were presented as mean ± SD.

Series [6] can be described thus: Octanol water partition coefficient, shake flask. The series is classed as physicochemical. The settings on record: octanol/PBS (pH 7.4), pH 7.4, shake flask, octanol/PBS pH 7.4, 37 °C, read-out: Log p (octanole water partition coefficient). The procedure:
Octanole water partition coefficients was measured by the method of shake flask with slight modification. The aqueous phase was replaced by PBS (pH 7.4). First, the phase of octanol and the aqueous were saturated with each other. Then, the mixture containing title compounds was shaken at 37 °C. After 24 h, the mixture was centrifuged at 4000 rpm for 30 min, followed by the measured with ultraviolet spectrophotometer. At last, logP values were calculated.

[7] abbreviates: GES1, MTT, human normal gastric mucosa cell, read-out: GES-1 IC50.

The term IC50 denotes the point on the concentration scale where inhibition reaches its midpoint. In the case of `COc1cccc2c1C(=O)c1c(O)c3c(c(O)c1C2=O)C[C@@](O)(C(=O)CO)C[C@@H]3O[C@H]1C[C@H](N)[C@H](O)[C@H](C)O1` [ADM, doxorubicin, reference compound], the IC50 in series [1] (48 h) came to 0.21 ± 0.03 µM; in series [2] it was 2.87 ± 0.21 µM; in series [3], 0.81 ± 0.06 µM; in series [4], 0.98 ± 0.27 µM; in the series with human glioma cell U87, 2.24 ± 0.12 µM.
As to `COc1cc(OC)c2c(=O)c(OCCCCN3CCN(C(=O)c4ccc(F)cc4F)CC3)c(-c3cc(OC)c(OC)c(OC)c3)oc2c1` [Compound 5a], the 50% inhibitory concentration (IC50) in series [5] (setting [7]) is 4180 ± 600 µM; in series [1] (MTT, 48 h exposure, mean ± SD) it was 25.5 ± 1.02 µM; in series [2], 33.4 ± 1.56 µM; in series [3], 28 ± 0.98 µM; in series [4] it was 16.6 ± 1.32 µM; in the series on human glioma cell U87 it was 16.6 ± 1.95 µM. For the same molecule, half-maximal inhibition against telomerase (IC50) required 11.3 ± 0.99 µM.
As for `COc1cc(OC)c2c(=O)c(OCCCCN3CCN(C(=O)c4c(F)cccc4F)CC3)c(-c3cc(OC)c(OC)c(OC)c3)oc2c1` [Compound 5b], the IC50 in series [1] (MTT, 48 h exposure, mean ± SD) was 11.3 ± 0.85 µM; in series [2], 23.4 ± 1.23 µM; in series [3], 17 ± 0.99 µM; in series [4], 10.5 ± 1.08 µM; in the series with human glioma cell U87, > 60 µM.
Turning to `COc1cc(OC)c2c(=O)c(OCCCCN3CCN(C(=O)c4c(F)cccc4Cl)CC3)c(-c3cc(OC)c(OC)c(OC)c3)oc2c1` [Compound 5c], the IC50 in series [1] (MTT, 48 h exposure, mean ± SD) stood at 9.77 ± 0.62 µM; in series [2] it was 28 ± 1.84 µM; in series [3], 15.9 ± 1.01 µM; in series [4], 9.31 ± 1.05 µM; in the series on human glioma cell U87, 25.4 ± 1.55 µM.
As for `COc1cc(OC)c2c(=O)c(OCCCCN3CCN(C(=O)c4cccc(F)c4)CC3)c(-c3cc(OC)c(OC)c(OC)c3)oc2c1` [Compound 5d], the half-maximal inhibitory concentration (IC50) in series [1] (MTT, 48 h exposure, mean ± SD) was 31.4 ± 1.73 µM; in series [2], 35.5 ± 1.65 µM; in series [3], 32 ± 1.53 µM; in series [4] it was 18.5 ± 0.89 µM; in the series with human glioma cell U87, > 60 µM.
For the molecule `COc1cc(OC)c2c(=O)c(OCCCCN3CCN(C(=O)c4ccccc4[N+](=O)[O-])CC3)c(-c3cc(OC)c(OC)c(OC)c3)oc2c1` [Compound 5e], the IC50 in series [5] (setting [7]) is 10000 ± 1220 µM; in series [1] (MTT, 48 h exposure, mean ± SD), 25.1 ± 1.5 µM; in series [2], > 60 µM; in series [3], 31.3 ± 1.63 µM; in series [4], 13.2 ± 0.88 µM; in the series with human glioma cell U87 it was > 60 µM. This molecule also came in with an IC50 at telomerase of 13.3 ± 1.25 µM.
Turning to `COc1cc(OC)c2c(=O)c(OCCCCN3CCN(C(=O)c4ccc(C(F)(F)F)cc4)CC3)c(-c3cc(OC)c(OC)c(OC)c3)oc2c1` [Compound 5f], the concentration for half-maximal inhibition (IC50) in series [5] (setting [7]) was determined as 2980 ± 550 µM; in series [1] (MTT, 48 h exposure, mean ± SD), 14.4 ± 0.8 µM; in series [2], 37.4 ± 1.69 µM; in series [3], 24.2 ± 1.44 µM; in series [4], 6.97 ± 0.85 µM; in the series on human glioma cell U87, 18 ± 0.66 µM. The logP at 24 h in series [6] amounted to 3.35. For the same molecule, the “activity against SGC-7901 cells (in words)” value (“activity” for short) in series [4] is “good activity”.
As to `COc1cc(OC)c2c(=O)c(OCCCCN3CCN(C(=O)c4ccc([N+](=O)[O-])cc4)CC3)c(-c3cc(OC)c(OC)c(OC)c3)oc2c1` [Compound 5g], the concentration for half-maximal inhibition (IC50) in series [1] (MTT, 48 h exposure, mean ± SD) turned out to be 17 ± 1.51 µM; in series [2], 40.5 ± 1.95 µM; in series [3] it was 23.2 ± 1.83 µM; in series [4] it was 10.5 ± 1.01 µM; with human glioma cell U87, 21.6 ± 0.9 µM.
Taken in the same sequence, the figures for `COc1cc(OC)c2c(=O)c(OCCCCN3CCN(C(=O)c4ccc(Cl)cc4)CC3)c(-c3cc(OC)c(OC)c(OC)c3)oc2c1` [Compound 5h] were 22.4 ± 0.87 µM, 35.3 ± 1.97 µM, 14.1 ± 1.27 µM, 9.22 ± 1 µM and 25.6 ± 1.4 µM.
`COc1cc(OC)c2c(=O)c(OCCCCN3CCN(C(=O)c4ccccc4)CC3)c(-c3cc(OC)c(OC)c(OC)c3)oc2c1` [Compound 5j]: the IC50 is 8.3 ± 0.3 µM in series [1] (MTT, 48 h exposure, mean ± SD); > 60 µM in series [2]; 7.29 ± 0.82 µM in series [3]; 7.56 ± 1.01 µM in series [4]; 20.3 ± 1.25 µM in the series with human glioma cell U87. Further, the logP at 24 h in series [6] worked out at 3.01. In addition, in series [4], the “activity” value was “good activity”.
Consider `COc1cc(OC)c2c(=O)c(OCCCCN3CCN(C(=O)c4cc([N+](=O)[O-])cc([N+](=O)[O-])c4)CC3)c(-c3cc(OC)c(OC)c(OC)c3)oc2c1` [Compound 5k], for which the IC50 was 2550 ± 380 µM in series [5] (Homo sapiens, GES1, read-out: GES-1 IC50); 2.94 ± 0.25 µM in series [1] (MTT, 48 h exposure, mean ± SD); 21.2 ± 1.53 µM in series [2]; 4.01 ± 0.38 µM in series [3]; 5.12 ± 0.5 µM in series [4]; 8.14 ± 0.22 µM in the series on human glioma cell U87. On telomerase, this molecule displayed an IC50 of 1.44 ± 0.28 µM. In series [4], the “activity” value is “good activity”.
In the case of `COc1cc(OC)c2c(=O)c(OCCCCN3CCN(C(=O)c4cc(Cl)ccc4[N+](=O)[O-])CC3)c(-c3cc(OC)c(OC)c(OC)c3)oc2c1` [Compound 5l], the IC50 in series [1] (MTT, 48 h exposure, mean ± SD) was 3.8 ± 0.31 µM; in series [2], 29.1 ± 1.75 µM; in series [3] it was 5.2 ± 0.87 µM; in series [4], 5.81 ± 1.01 µM; in the series with human glioma cell U87, 16.2 ± 1.45 µM. The logP at 24 h in series [6] was determined as 4.82. In series [4], the “activity” value is on record as “good activity”.
